The test relates to CD2F1 mice, L1210 leukemia ip, survival T/C. As to the kind of experiment: NCI In Vivo Anticancer Drug Screen. Data for tumor model L1210 Leukemia (intraperitoneal) in CD2F1 (CDF1) mice. The note with it: higher = longer survival. In short, it runs like this: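 Read-out first: treated-group measurement over vehicle-control measurement, expressed as a ratio. Animals bore a transplanted tumor line and were dosed with compound or vehicle.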

Where [1] appears, read: endpoint: mean survival time, dose: 100.0 mg/kg/injection, schedule: Q01DX009 (ip), vehicle: saline with Tween-80.
Where [2] appears, read: endpoint: mean survival time, dose: 100.0 mg/kg/injection, schedule: Q04DX003 (ip), vehicle: saline with Tween-80.
[3] abbreviates: endpoint: mean survival time, dose: 200.0 mg/kg/injection, schedule: Q01DX009 (ip), vehicle: saline with Tween-80.
[4] abbreviates: endpoint: mean survival time, dose: 200.0 mg/kg/injection, schedule: Q04DX003 (ip), vehicle: saline with Tween-80.
The mark [5] stands for this setting: endpoint: mean survival time, dose: 400.0 mg/kg/injection, schedule: Q01DX009 (ip), vehicle: saline with Tween-80.
Setting [6] is: endpoint: mean survival time, dose: 400.0 mg/kg/injection, schedule: Q04DX003 (ip), vehicle: saline with Tween-80.

SMILES strings stand for the structures. Where “and” joins values, the source holds several entries; their conditions need not be identical. Equal entries are not always repeated. Toxic doses and inconclusive results are not listed.

For the compound `CC1=CC2c3cccc4[nH]cc(c34)CC2N(C)C1` (centres undefined), the T/C (endpoint: median survival time, dose: 1.25 mg/kg/injection, schedule: Q01DX009 (ip), vehicle: suspension in saline) was 101 % of control; the T/C (endpoint: median survival time, dose: 2.5 mg/kg/injection, schedule: Q01DX009 (ip), vehicle: suspension in saline) is 101 % of control; the T/C (endpoint: median survival time, dose: 5.0 mg/kg/injection, schedule: Q01DX009 (ip), vehicle: suspension in saline) is 101 % of control; the T/C (endpoint: median survival time, dose: 10.0 mg/kg/injection, schedule: Q01DX009 (ip), vehicle: suspension in saline) is 101 % of control; the T/C (endpoint: median survival time, dose: 20.0 mg/kg/injection, schedule: Q01DX009 (ip), vehicle: suspension in saline) was 98 % of control.
Regarding `COc1ccc(-c2cc(=O)c3ccc(O)cc3o2)cc1`, the T/C by setting is: (endpoint: mean survival time, dose: 75.0 mg/kg/injection, schedule: Q01DX001 (ip), vehicle: saline) 104 % of control; (endpoint: mean survival time, dose: 150.0 mg/kg/injection, schedule: Q01DX001 (ip), vehicle: saline) 90 % of control; (endpoint: mean survival time, dose: 300.0 mg/kg/injection, schedule: Q01DX001 (ip), vehicle: saline) 104 % of control.
Consider `C=CCNC(=O)/C(=C\c1ccccc1)NC(C)=O`, for which the T/C reads like this: under setting [1], 96 % of control; under setting [2], 98 % of control; under setting [3], 98 % of control; under setting [4], 100 % of control; under setting [5], 95 % of control; under setting [6], 100 % of control.
For the compound `Cc1ccccc1NC(=O)CC#N`, the T/C (endpoint: mean survival time, dose: 25.0 mg/kg/injection, schedule: Q01DX009 (ip), vehicle: saline with Tween-80) was 96 % of control; the T/C (endpoint: mean survival time, dose: 50.0 mg/kg/injection, schedule: Q01DX009 (ip), vehicle: saline with Tween-80) was 96 % of control; the T/C under setting [1] was 94 % of control.
In the case of `O=C(O)CC(=O)CC(=O)O.[NH-]C1CCCCC1[NH-].[Pt+2]`, the T/C (endpoint: median survival time, dose: 3.12 mg/kg/injection, schedule: Q04DX003 (ip), vehicle: saline) was 101 % of control and 108 % of control; the T/C (endpoint: median survival time, dose: 6.25 mg/kg/injection, schedule: Q04DX003 (ip), vehicle: saline) was 114 % of control and 108 % of control; the T/C (endpoint: median survival time, dose: 12.5 mg/kg/injection, schedule: Q04DX003 (ip), vehicle: saline) was 118 % of control and 112 % of control; the T/C (endpoint: median survival time, dose: 25.0 mg/kg/injection, schedule: Q04DX003 (ip), vehicle: saline) is 122 % of control; the T/C (endpoint: median survival time, dose: 100.0 mg/kg/injection, schedule: Q04DX003 (ip), vehicle: saline) was 162 % of control and 294 % of control; the T/C (endpoint: median survival time, dose: 200.0 mg/kg/injection, schedule: Q04DX003 (ip), vehicle: saline) is 241 % of control.
Consider `C1=CC2CCC[N-]C2N1.C1=CC2CCC[N-]C2N1.[I][Pt+2][I]` (centres undefined), for which the T/C was 98 % of control (endpoint: mean survival time, dose: 25.0 mg/kg/injection, schedule: Q04DX003 (ip), vehicle: saline); 101 % of control (endpoint: mean survival time, dose: 50.0 mg/kg/injection, schedule: Q04DX003 (ip), vehicle: saline); 102 % of control (endpoint: mean survival time, dose: 100.0 mg/kg/injection, schedule: Q04DX003 (ip), vehicle: saline); 107 % of control (endpoint: mean survival time, dose: 200.0 mg/kg/injection, schedule: Q04DX003 (ip), vehicle: saline).
As to `C=CCCCCCCCCC(=O)NCC(C)C`, the T/C was 104 % of control under setting [1]; 91 % of control under setting [2]; 104 % of control under setting [3]; 102 % of control under setting [4]; 98 % of control under setting [5]; 100 % of control under setting [6].
On to `CSc1nc(NC2OCC(O)C(O)C2O)c(C(C)=O)c(=O)n1C` (centres undefined), for which the T/C was 97 % of control (endpoint: median survival time, dose: 12.5 mg/kg/injection, schedule: Q01DX005 (ip), vehicle: saline with Tween-80); 98 % of control (endpoint: median survival time, dose: 25.0 mg/kg/injection, schedule: Q01DX005 (ip), vehicle: saline with Tween-80); 96 % of control (endpoint: median survival time, dose: 50.0 mg/kg/injection, schedule: Q01DX005 (ip), vehicle: saline with Tween-80); 89 % of control (endpoint: median survival time, dose: 100.0 mg/kg/injection, schedule: Q01DX005 (ip), vehicle: saline with Tween-80); 94 % of control (endpoint: median survival time, dose: 200.0 mg/kg/injection, schedule: Q01DX005 (ip), vehicle: saline with Tween-80).
Regarding `O=c1c2cc[nH]c2ncn1C1OC(CO)C(O)C1O` (centres undefined), the T/C is, setting by setting: (endpoint: mean survival time, dose: 12.5 mg/kg/injection, schedule: Q01DX005 (ip), vehicle: saline) 96 % of control; (endpoint: mean survival time, dose: 25.0 mg/kg/injection, schedule: Q01DX005 (ip), vehicle: saline) 107 % of control.
Turning to `O=C1N[C@H]2[C@H](CS[C@H]2CCCCC(=O)N(CCP(c2ccccc2)c2ccccc2)CCP(c2ccccc2)c2ccccc2)N1`, the T/C reads like this: (endpoint: median survival time, dose: 25.0 mg/kg/injection, schedule: Q01DX009 (ip), vehicle: Klucel (hydroxypropylcellulose) (HPC)) 100 % of control and 107 % of control; (endpoint: median survival time, dose: 50.0 mg/kg/injection, schedule: Q01DX009 (ip), vehicle: Klucel (hydroxypropylcellulose) (HPC)) 98 % of control and 107 % of control; (endpoint: median survival time, dose: 100.0 mg/kg/injection, schedule: Q01DX009 (ip), vehicle: Klucel (hydroxypropylcellulose) (HPC)) 103 % of control and 109 % of control; (endpoint: median survival time, dose: 200.0 mg/kg/injection, schedule: Q01DX009 (ip), vehicle: Klucel (hydroxypropylcellulose) (HPC)) 97 % of control and 110 % of control; (endpoint: median survival time, dose: 400.0 mg/kg/injection, schedule: Q01DX009 (ip), vehicle: Klucel (hydroxypropylcellulose) (HPC)) 90 % of control and 108 % of control.
In the case of `O=C(Cc1ccccc1[N+](=O)[O-])NCC1(c2cccc3c2OCO3)OCCO1`, the T/C was 96 % of control (endpoint: mean survival time, dose: 75.0 mg/kg/injection, schedule: Q01DX001 (ip), vehicle: other); 91 % of control (endpoint: mean survival time, dose: 150.0 mg/kg/injection, schedule: Q01DX001 (ip), vehicle: other); 96 % of control (endpoint: mean survival time, dose: 300.0 mg/kg/injection, schedule: Q01DX001 (ip), vehicle: other).
As to `CCC(C)C(NC(=O)OCc1ccccc1)C(=O)ON1C(=O)CCC1=O` (centres undefined), the T/C is 95 % of control (endpoint: mean survival time, dose: 100.0 mg/kg/injection, schedule: Q04DX003 (ip), vehicle: saline sonified); 90 % of control (endpoint: mean survival time, dose: 200.0 mg/kg/injection, schedule: Q04DX003 (ip), vehicle: saline sonified); 100 % of control (endpoint: mean survival time, dose: 400.0 mg/kg/injection, schedule: Q04DX003 (ip), vehicle: saline sonified).
With `CC(C)OC(=O)c1cc([N+](=O)[O-])cc([N+](=O)[O-])c1Sc1ncnc2nc[nH]c12`, the T/C is, setting by setting: (endpoint: mean survival time, dose: 0.63 mg/kg/injection, schedule: Q01DX005 (ip), vehicle: other) 115 % of control; (endpoint: mean survival time, dose: 1.25 mg/kg/injection, schedule: Q01DX005 (ip), vehicle: other) 118 % of control; (endpoint: mean survival time, dose: 2.5 mg/kg/injection, schedule: Q01DX005 (ip), vehicle: other) 115 % of control; (endpoint: mean survival time, dose: 18.8 mg/kg/injection, schedule: Q01DX005 (ip), vehicle: other) 156 % of control.
Regarding `CC(C/C=N/N1CCCCC1)Nc1ccnc2cc(Cl)ccc12` (centres undefined), the T/C is, setting by setting: (endpoint: mean survival time, dose: 0.78 mg/kg/injection, schedule: Q01DX009 (ip), vehicle: saline with Tween-80) 95 % of control; (endpoint: mean survival time, dose: 1.56 mg/kg/injection, schedule: Q01DX009 (ip), vehicle: saline with Tween-80) 101 % of control; (endpoint: mean survival time, dose: 3.13 mg/kg/injection, schedule: Q01DX009 (ip), vehicle: saline with Tween-80) 102 % of control.
Regarding `CCOC(=O)C(C#N)(CCC#N)CCC#N`, the T/C is 94 % of control under setting [1]; 100 % of control under setting [2]; 98 % of control under setting [3]; 102 % of control under setting [4]; 94 % of control under setting [5]; 100 % of control under setting [6].

The values are drawn from PubChem BioAssay AID256 (DTP/NCI, 2004).
